From patent US7935687B2, “Methods for treating spinal muscular atrophy using tetracycline compounds” (Paratek Pharmaceuticals, Inc., priority 2007, dated 2011)

Columns and labels:
[1] = test system: S. aureus (SA RN450); assay: Antibacterial MIC, gram positive; assay type: cell-based; settings: CLSI methodology, 35° C., 18-24 hours; for MIC: Staphylococcus aureus
[2] = test system: E. coli (EC D1-209); assay: Antibacterial MIC, gram negative; assay type: cell-based; settings: CLSI methodology, 35° C., 18-24 hours; for MIC: Escherichia coli

Compound	MIC Gram Positive (SA RN450) [1]	MIC Gram Negative (EC D1-209) [2]	MIC [1]	MIC [2]
CN(C)C1C(O)=C(C(N)=O)C(=O)C2(O)C(O)=C3C(=O)c4c(O)ccc(-c5cnc6ccccc6c5)c4CC3CC12 (centres unmarked) [G]	*** (Good antibacterial activity (e.g., less than about 4 μg/mL))	* (weak antibacterial activity (greater than about 8 μg/mL))		
CN(C)CCNC(=O)c1ccc(-c2ccc(O)c3c2CC2CC4C(N(C)C)C(O)=C(C(N)=O)C(=O)C4(O)C(O)=C2C3=O)cc1 (centres unmarked) [AD]	*** (Good antibacterial activity (e.g., less than about 4 μg/mL))	* (weak antibacterial activity (greater than about 8 μg/mL))		
CC1=NCCN1CC(=O)c1ccc(O)c2c1CC1CC3C(N(C)C)C(O)=C(C(N)=O)C(=O)C3(O)C(O)=C1C2=O (centres unmarked) [CH]	** (modest antibacterial activity (between about 4 and 8 μg/mL))	* (weak antibacterial activity (greater than about 8 μg/mL))		
CN(C)CCNC(=O)c1cccc(-c2ccc(O)c3c2CC2CC4C(N(C)C)C(O)=C(C(N)=O)C(=O)C4(O)C(O)=C2C3=O)c1F (centres unmarked) [AP]	*** (Good antibacterial activity (e.g., less than about 4 μg/mL))	* (weak antibacterial activity (greater than about 8 μg/mL))		
CN(C)CCc1ccc(O)c2c1CC1CC3C(N(C)C)C(O)=C(C(N)=O)C(=O)C3(O)C(O)=C1C2=O (centres unmarked) [Compound BD]	*** (Good antibacterial activity (e.g., less than about 4 μg/mL))	* (weak antibacterial activity (greater than about 8 μg/mL))		
CN(CCOC(C)(C)C)Cc1cccc(-c2ccc(O)c3c2CC2CC4C(N(C)C)C(O)=C(C(N)=O)C(=O)C4(O)C(O)=C2C3=O)c1 (centres unmarked) [BM]	*** (Good antibacterial activity (e.g., less than about 4 μg/mL))	** (modest antibacterial activity (between about 4 and 8 μg/mL))		
COC(C)CNCC(=O)c1ccc(O)c2c1CC1CC3C(N(C)C)C(O)=C(C(N)=O)C(=O)C3(O)C(O)=C1C2=O (centres unmarked) [CA]	*** (Good antibacterial activity (e.g., less than about 4 μg/mL))	* (weak antibacterial activity (greater than about 8 μg/mL))		
CN(C)CC(=O)Nc1ccc(-c2ccc(O)c3c2CC2CC4C(N(C)C)C(O)=C(C(N)=O)C(=O)C4(O)C(O)=C2C3=O)cc1 (centres unmarked) [BC]	*** (Good antibacterial activity (e.g., less than about 4 μg/mL))	*** (Good antibacterial activity (e.g., less than about 4 μg/mL))		
CN(C)CCCNC(=O)c1cccc(-c2cc(N(C)C)c3c(c2O)C(=O)C2=C(O)[C@]4(O)C(=O)C(C(N)=O)=C(O)[C@@H](N(C)C)[C@@H]4C[C@@H]2C3)c1 [Compound X]	* (weak antibacterial activity (greater than about 8 μg/mL))	* (weak antibacterial activity (greater than about 8 μg/mL))		
CC(=O)c1cccc(-c2ccc(O)c3c2CC2CC4C(N(C)C)C(O)=C(C(N)=O)C(=O)C4(O)C(O)=C2C3=O)c1 (centres unmarked) [AS]	*** (Good antibacterial activity (e.g., less than about 4 μg/mL))	* (weak antibacterial activity (greater than about 8 μg/mL))		
COCCNCc1ccc(-c2ccc(O)c3c2CC2CC4C(N(C)C)C(O)=C(C(N)=O)C(=O)C4(O)C(O)=C2C3=O)cc1 (centres unmarked) [BG]	*** (Good antibacterial activity (e.g., less than about 4 μg/mL))	*** (Good antibacterial activity (e.g., less than about 4 μg/mL))		
CN(C)CCNC(=O)c1cccc(-c2ccc(O)c3c2C[C@H]2C[C@H]4CC(O)=C(C(N)=O)C(=O)[C@@]4(O)C(O)=C2C3=O)c1 [Compound Z, (4aS,5aR,12aS)-7-[3-(2-Dimethylamino-ethylcarbamoyl)-phenyl]-3,10,12,12a-tetrahydroxy-1,11-dioxo-1,4,4a,5,5a,6,11,12a-octahydro-naphthacene-2-carboxylic Acid Amide]			> 8 µg/mL	> 8 µg/mL
CN(C)C1C(O)=C(C(N)=O)C(=O)C2(O)C(O)=C3C(=O)c4c(O)ccc(-c5ccccc5)c4CC3CC12 (centres unmarked) [AQ]	*** (Good antibacterial activity (e.g., less than about 4 μg/mL))	** (modest antibacterial activity (between about 4 and 8 μg/mL))		
CN(C)c1cc(-c2cccc(C(N)=O)c2)c(O)c2c1CC1CC3C(N(C)C)C(O)=C(C(N)=O)C(=O)C3(O)C(O)=C1C2=O (centres unmarked) [CD]	** (modest antibacterial activity (between about 4 and 8 μg/mL))	* (weak antibacterial activity (greater than about 8 μg/mL))		
CN(C)CCC(=NOC(C)(C)C)c1ccc(O)c2c1CC1CC3C(N(C)C)C(O)=C(C(N)=O)C(=O)C3(O)C(O)=C1C2=O (centres unmarked) [Compound CJ]	*** (Good antibacterial activity (e.g., less than about 4 μg/mL))	* (weak antibacterial activity (greater than about 8 μg/mL))		
CC(C)OC(=O)c1cccc(-c2ccc(O)c3c2CC2CC4C(N(C)C)C(O)=C(C(N)=O)C(=O)C4(O)C(O)=C2C3=O)c1 (centres unmarked) [AU]	*** (Good antibacterial activity (e.g., less than about 4 μg/mL))	* (weak antibacterial activity (greater than about 8 μg/mL))		
CC(=O)Nc1cccc(-c2ccc(O)c3c2CC2CC4C(N(C)C)C(O)=C(C(N)=O)C(=O)C4(O)C(O)=C2C3=O)c1 (centres unmarked) [AO]	*** (Good antibacterial activity (e.g., less than about 4 μg/mL))	* (weak antibacterial activity (greater than about 8 μg/mL))		
C=CCNCC(=O)c1ccc(O)c2c1CC1CC3C(N(C)C)C(O)=C(C(N)=O)C(=O)C3(O)C(O)=C1C2=O (centres unmarked) [BV]	*** (Good antibacterial activity (e.g., less than about 4 μg/mL))	* (weak antibacterial activity (greater than about 8 μg/mL))		
CN(C)CCNC(=O)c1cccc(-c2cc(N(C)C)c3c(c2O)C(=O)C2=C(O)[C@]4(O)C(=O)C(C(N)=O)=C(O)[C@@H](N(C)C)[C@@H]4C[C@@H]2C3)c1 [Compound V, (4S,4aS,5aR,12aS)-4,7-Bis-dimethylamino-9-[3-(2-dimethylamino-ethylcarbamoyl)-phenyl]-3,10,12,12a-tetrahydroxy-1,11-dioxo-1,4,4a,5,5a,6,11,12a-octahydro-naphthacene-2-carboxylic Acid Amide]			> 8 µg/mL	> 8 µg/mL
CN(C)CCCOc1ccc(-c2ccc(O)c3c2CC2CC4C(N(C)C)C(O)=C(C(N)=O)C(=O)C4(O)C(O)=C2C3=O)cn1 (centres unmarked) [W]	*** (Good antibacterial activity (e.g., less than about 4 μg/mL))	*** (Good antibacterial activity (e.g., less than about 4 μg/mL))		
CN1CCN(C(=O)c2cccc(-c3ccc(O)c4c3CC3CC5C(N(C)C)C(O)=C(C(N)=O)C(=O)C5(O)C(O)=C3C4=O)c2)CC1 (centres unmarked) [Compound C]	*** (Good antibacterial activity (e.g., less than about 4 μg/mL))	* (weak antibacterial activity (greater than about 8 μg/mL))		
CCOC(=O)N1CCN(CC(=O)c2ccc(O)c3c2CC2CC4C(N(C)C)C(O)=C(C(N)=O)C(=O)C4(O)C(O)=C2C3=O)CC1 (centres unmarked) [BR]	*** (Good antibacterial activity (e.g., less than about 4 μg/mL))	* (weak antibacterial activity (greater than about 8 μg/mL))		
CN(C)CCN(C)C(=O)c1cccc(-c2ccc(O)c3c2CC2CC4C(N(C)C)C(O)=C(C(N)=O)C(=O)C4(O)C(O)=C2C3=O)c1 (centres unmarked) [R]	*** (Good antibacterial activity (e.g., less than about 4 μg/mL))	* (weak antibacterial activity (greater than about 8 μg/mL))		
CN(C)C1C(O)=C(C(N)=O)C(=O)C2(O)C(O)=C3C(=O)c4c(O)ccc(C(=O)CNCC(F)(F)F)c4CC3CC12 (centres unmarked) [BT]	*** (Good antibacterial activity (e.g., less than about 4 μg/mL))	* (weak antibacterial activity (greater than about 8 μg/mL))		
CN(C)C1C(O)=C(C(N)=O)C(=O)C2(O)C(O)=C3C(=O)c4c(O)ccc(-c5cccc(C(N)=O)c5)c4CC3CC12 (centres unmarked) [AE]	*** (Good antibacterial activity (e.g., less than about 4 μg/mL))	* (weak antibacterial activity (greater than about 8 μg/mL))		
COc1ccc(CN(C)C)cc1-c1ccc(O)c2c1CC1CC3C(N(C)C)C(O)=C(C(N)=O)C(=O)C3(O)C(O)=C1C2=O (centres unmarked) [AT]	*** (Good antibacterial activity (e.g., less than about 4 μg/mL))	*** (Good antibacterial activity (e.g., less than about 4 μg/mL))		
CN(C)CC(=O)N1CC=C(c2ccc(O)c3c2CC2CC4C(N(C)C)C(O)=C(C(N)=O)C(=O)C4(O)C(O)=C2C3=O)CC1 (centres unmarked) [Compound AL]	*** (Good antibacterial activity (e.g., less than about 4 μg/mL))	* (weak antibacterial activity (greater than about 8 μg/mL))		
CN(C)Cc1ccc(-c2ccc(O)c3c2CC2CC4C(N(C)C)C(O)=C(C(N)=O)C(=O)C4(O)C(O)=C2C3=O)[nH]1 (centres unmarked) [BK]	*** (Good antibacterial activity (e.g., less than about 4 μg/mL))	* (weak antibacterial activity (greater than about 8 μg/mL))		
